Results on five compounds are retold here after article PMC12586182 (Frontiers in Oncology, 2025).

What all share (experiment): Kinase panel profiling at 1 µmol/L (mobility shift assay, Carna)
One experiment addresses T1, SGK2 (Homo sapiens, UniProt Q9HBY8).
T1 construct: purchased Carna Biosciences
T1 sequence (Q9HBY8 1-367): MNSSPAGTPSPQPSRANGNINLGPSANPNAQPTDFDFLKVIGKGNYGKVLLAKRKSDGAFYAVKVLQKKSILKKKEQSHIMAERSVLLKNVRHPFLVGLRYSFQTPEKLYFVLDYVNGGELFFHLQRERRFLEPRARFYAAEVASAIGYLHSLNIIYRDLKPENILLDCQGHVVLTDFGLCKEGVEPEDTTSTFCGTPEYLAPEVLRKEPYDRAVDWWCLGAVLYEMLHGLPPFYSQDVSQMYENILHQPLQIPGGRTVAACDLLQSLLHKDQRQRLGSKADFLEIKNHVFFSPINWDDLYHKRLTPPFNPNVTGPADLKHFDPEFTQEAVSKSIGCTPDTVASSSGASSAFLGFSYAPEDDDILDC
It counts as biochemical. The settings on record: 1 µmol/L of BTK inhibitor.

The target in the next experiment is T2, CLK1 (Homo sapiens, UniProt P49759).
T2 construct: purchased Carna Biosciences
It is filed as biochemical. The settings on record: 1 µmol/L of BTK inhibitor.

The target of a further experiment is T3, NEK1 (Homo sapiens, UniProt Q96PY6).
T3 construct: purchased Carna Biosciences
T3 sequence (Q96PY6 1-1258): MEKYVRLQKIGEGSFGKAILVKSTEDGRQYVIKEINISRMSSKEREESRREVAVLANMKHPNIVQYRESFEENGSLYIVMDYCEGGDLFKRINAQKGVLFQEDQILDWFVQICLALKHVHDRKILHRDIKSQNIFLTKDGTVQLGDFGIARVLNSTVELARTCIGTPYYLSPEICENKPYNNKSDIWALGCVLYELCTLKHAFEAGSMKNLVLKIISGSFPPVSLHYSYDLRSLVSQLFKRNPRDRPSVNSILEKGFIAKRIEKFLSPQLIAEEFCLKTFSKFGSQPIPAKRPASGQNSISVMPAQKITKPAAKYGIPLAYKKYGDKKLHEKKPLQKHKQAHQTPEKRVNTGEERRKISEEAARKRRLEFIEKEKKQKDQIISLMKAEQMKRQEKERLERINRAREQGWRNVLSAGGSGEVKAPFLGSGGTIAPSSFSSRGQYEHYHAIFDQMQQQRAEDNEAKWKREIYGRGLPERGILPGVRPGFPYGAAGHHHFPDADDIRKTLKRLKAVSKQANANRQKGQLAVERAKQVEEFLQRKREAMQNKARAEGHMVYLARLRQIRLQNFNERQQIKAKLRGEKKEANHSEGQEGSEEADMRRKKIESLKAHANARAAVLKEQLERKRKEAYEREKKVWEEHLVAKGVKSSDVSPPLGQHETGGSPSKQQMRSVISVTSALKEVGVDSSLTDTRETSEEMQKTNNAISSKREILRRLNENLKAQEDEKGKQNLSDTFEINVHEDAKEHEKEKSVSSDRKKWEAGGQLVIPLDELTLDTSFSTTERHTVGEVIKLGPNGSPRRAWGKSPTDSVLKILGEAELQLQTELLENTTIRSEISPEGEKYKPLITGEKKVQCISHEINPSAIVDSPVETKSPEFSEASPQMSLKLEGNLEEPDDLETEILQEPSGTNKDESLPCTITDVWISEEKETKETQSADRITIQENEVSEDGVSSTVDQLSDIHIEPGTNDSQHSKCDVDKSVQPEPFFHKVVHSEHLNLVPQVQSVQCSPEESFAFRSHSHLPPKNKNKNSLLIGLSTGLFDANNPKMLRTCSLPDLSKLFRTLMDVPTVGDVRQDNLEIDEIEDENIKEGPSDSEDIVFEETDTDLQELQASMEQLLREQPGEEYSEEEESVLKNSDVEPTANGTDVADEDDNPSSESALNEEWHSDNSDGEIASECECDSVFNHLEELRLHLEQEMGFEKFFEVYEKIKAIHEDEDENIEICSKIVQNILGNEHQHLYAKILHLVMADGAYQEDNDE
It is filed as biochemical. The following applies: 1 µmol/L of BTK inhibitor.

A further experiment deals with BRK (Homo sapiens, UniProt Q13882). The following applies: for Percentage inhibition of kinase enzyme activity: BRK, 1 µmol/L of BTK inhibitor.
The next experiment has as its target T4, PEK (Homo sapiens, UniProt Q9NZJ5).
T4 construct: purchased Carna Biosciences
T4 sequence (Q9NZJ5 30-1116): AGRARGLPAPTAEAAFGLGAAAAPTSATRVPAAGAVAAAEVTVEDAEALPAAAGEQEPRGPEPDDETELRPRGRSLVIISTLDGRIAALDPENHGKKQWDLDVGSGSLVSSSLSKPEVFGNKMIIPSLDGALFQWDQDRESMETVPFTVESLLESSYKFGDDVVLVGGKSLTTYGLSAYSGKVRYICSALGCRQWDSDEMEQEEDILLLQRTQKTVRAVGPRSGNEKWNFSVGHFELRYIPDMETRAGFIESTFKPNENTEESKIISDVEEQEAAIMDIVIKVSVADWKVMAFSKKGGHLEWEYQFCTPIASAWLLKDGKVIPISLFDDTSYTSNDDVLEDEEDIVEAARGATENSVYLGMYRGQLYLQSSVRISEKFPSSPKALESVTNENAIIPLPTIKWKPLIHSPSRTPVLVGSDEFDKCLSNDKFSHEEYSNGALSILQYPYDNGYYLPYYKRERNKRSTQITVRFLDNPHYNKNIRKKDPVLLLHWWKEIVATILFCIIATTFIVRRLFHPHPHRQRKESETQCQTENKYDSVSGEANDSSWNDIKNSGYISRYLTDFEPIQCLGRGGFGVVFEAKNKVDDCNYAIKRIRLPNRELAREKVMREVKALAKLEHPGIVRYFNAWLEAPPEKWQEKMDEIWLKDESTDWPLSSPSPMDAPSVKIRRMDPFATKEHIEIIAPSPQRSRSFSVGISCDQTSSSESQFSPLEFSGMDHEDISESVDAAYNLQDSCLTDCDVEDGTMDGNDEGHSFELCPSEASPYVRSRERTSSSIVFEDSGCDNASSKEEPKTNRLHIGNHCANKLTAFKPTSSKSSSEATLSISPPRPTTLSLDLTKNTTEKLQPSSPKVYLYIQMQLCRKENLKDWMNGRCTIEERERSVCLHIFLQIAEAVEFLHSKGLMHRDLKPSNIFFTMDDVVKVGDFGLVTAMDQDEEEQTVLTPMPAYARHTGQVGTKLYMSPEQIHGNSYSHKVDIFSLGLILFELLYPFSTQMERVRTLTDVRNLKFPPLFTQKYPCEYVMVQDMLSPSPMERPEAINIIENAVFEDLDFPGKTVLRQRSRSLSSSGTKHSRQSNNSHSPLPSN
It is filed as biochemical. The following applies: 1 µmol/L of BTK inhibitor.

The target in the next experiment is T5, NDR2 (Homo sapiens, UniProt Q9Y2H1).
T5 construct: purchased Carna Biosciences
It is filed as biochemical. The settings on record: 1 µmol/L of BTK inhibitor.

The next experiment deals with T6, DDR1 (Homo sapiens, UniProt Q08345).
T6 construct: purchased Carna Biosciences
It is filed as biochemical. The following applies: 1 µmol/L of BTK inhibitor.

Broadly, the inhibition is the percentage by which the read-out fell short of the control.

Chain of BRK (Q13882 whole entry): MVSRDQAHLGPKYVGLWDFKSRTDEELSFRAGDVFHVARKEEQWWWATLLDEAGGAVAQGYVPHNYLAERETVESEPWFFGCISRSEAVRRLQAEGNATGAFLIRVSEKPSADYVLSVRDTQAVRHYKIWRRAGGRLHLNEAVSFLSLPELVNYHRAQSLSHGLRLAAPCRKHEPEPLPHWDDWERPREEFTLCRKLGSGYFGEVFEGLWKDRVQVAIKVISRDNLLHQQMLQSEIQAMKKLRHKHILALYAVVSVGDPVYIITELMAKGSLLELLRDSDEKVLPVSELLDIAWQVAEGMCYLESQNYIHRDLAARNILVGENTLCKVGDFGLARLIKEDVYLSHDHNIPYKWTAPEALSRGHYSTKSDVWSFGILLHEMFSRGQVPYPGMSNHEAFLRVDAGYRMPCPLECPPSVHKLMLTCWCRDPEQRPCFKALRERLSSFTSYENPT
T6 sequence (Q08345 19-913): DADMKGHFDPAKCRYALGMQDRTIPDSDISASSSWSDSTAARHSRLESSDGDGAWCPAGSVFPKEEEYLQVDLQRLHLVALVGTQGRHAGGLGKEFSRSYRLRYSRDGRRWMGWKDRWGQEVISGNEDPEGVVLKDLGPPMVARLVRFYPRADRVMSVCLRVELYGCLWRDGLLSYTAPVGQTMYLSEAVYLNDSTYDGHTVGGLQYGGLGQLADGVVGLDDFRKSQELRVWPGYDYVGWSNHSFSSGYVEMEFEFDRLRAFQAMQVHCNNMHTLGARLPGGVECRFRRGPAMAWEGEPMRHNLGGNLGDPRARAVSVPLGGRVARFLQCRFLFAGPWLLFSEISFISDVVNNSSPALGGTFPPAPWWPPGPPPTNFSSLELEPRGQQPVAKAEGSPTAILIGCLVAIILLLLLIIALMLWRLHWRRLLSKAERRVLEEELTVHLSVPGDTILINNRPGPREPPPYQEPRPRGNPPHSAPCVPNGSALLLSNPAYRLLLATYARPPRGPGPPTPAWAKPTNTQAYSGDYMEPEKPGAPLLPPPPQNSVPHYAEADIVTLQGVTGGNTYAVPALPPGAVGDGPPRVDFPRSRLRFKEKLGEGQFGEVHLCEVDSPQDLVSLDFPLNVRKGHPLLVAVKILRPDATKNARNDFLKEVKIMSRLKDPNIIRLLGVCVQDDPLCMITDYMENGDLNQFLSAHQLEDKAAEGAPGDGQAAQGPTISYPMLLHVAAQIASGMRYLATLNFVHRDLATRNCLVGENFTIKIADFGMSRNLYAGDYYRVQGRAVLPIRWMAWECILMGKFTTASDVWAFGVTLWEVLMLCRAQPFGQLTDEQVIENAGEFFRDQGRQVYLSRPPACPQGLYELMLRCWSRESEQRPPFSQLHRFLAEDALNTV
T2 sequence (P49759 whole entry): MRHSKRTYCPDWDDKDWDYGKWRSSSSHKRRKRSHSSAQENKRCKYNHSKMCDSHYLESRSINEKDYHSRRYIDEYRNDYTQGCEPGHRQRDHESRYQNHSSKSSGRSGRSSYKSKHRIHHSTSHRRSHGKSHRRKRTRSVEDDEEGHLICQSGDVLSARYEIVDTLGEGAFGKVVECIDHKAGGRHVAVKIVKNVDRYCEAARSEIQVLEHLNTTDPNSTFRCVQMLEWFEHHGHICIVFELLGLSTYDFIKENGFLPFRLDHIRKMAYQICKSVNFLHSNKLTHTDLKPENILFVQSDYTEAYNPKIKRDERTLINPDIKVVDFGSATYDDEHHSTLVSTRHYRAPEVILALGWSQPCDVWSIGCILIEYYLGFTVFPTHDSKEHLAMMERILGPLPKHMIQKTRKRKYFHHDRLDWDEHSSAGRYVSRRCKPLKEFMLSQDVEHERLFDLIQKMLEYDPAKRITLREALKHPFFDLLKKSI
T5 sequence (Q9Y2H1 whole entry): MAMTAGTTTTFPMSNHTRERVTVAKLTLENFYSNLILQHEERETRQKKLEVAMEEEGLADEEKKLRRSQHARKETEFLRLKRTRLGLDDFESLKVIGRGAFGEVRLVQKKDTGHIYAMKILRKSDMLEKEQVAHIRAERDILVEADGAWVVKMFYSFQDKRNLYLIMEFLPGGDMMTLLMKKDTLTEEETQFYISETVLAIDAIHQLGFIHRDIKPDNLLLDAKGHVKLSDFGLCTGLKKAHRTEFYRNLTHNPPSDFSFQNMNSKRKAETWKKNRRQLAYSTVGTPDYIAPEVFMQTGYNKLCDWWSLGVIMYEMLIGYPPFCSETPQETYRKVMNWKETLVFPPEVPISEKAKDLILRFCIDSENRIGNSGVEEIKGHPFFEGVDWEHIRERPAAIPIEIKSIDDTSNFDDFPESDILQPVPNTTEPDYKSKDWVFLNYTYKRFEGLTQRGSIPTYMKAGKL

Consider `CC#CC(=O)N1CCC[C@H]1c1nc(-c2ccc(C(=O)Nc3ccccn3)cc2)c2c(N)nccn12` [acalabrutinib], for which the “Percentage inhibition of kinase enzyme activity” value (“Percentage inhibition” below) is listed as -19.42% on SGK2; -8.11% on CLK1; -7.46% at NEK1; 51.05% at BRK; 8.39% on PEK; -6.41% on NDR2. Also, the “Percentage inhibition” value at DDR1 was 7.80%.
As for `COc1ccc(F)cc1C(=O)NCc1ccc(-c2nn([C@@H](C)C(F)(F)F)c(N)c2C(N)=O)cc1` [pirtobrutinib], the “Percentage inhibition” value is given as -0.16% on SGK2; -2.61% on CLK1; -2.24% at NEK1; 89.81% at BRK; -9.35% at PEK; -4.16% at NDR2. In addition, at DDR1, the “Percentage inhibition” value stood at 2.52%. Also, on BRK (read-out: Inhibition of BRK), the inhibition at 1 µM is greater than 75%.
As to `C=CC(=O)N1CCC[C@@H](n2nc(-c3ccc(Oc4ccccc4)cc3)c3c(N)ncnc32)C1` [ibrutinib], the “Percentage inhibition” value stood at 3.73% at NEK1; 102.78% on BRK; 7.47% on PEK; 3.47% on NDR2; 37.17% at DDR1.
As to `O=C(c1ccc(Oc2ccccc2)cc1Cl)c1c[nH]c2ncnc(N[C@@H]3CC[C@@H](CO)OC3)c12` [nemtabrutinib], the “Percentage inhibition” value is reported as 2.52% at SGK2; 0.63% at CLK1; -1.75% on NEK1; 49.66% at PEK; -0.25% on NDR2; 93.81% on DDR1.
For `C=CC(=O)N1CCC([C@@H]2CCNc3c(C(N)=O)c(-c4ccc(Oc5ccccc5)cc4)nn32)CC1` [zanubrutinib], the results for the “Percentage inhibition” value at BRK and on NDR2 were 98.97% and 0.50%, respectively.
